Drawing on US9096601B2 (CSPC Zhongqi Pharmaceutical Technology (Shijiazhuang) Co., …, priority 2010, dated 2015), this text covers IC50 for ten compounds.

A word on the IC50: it is the concentration at which inhibition is half-maximal.

Common to all, as to experiment: In-vitro tumor cell proliferation inhibition, MTT
Assay type in all cases: cell-based, human

For assay [1], the system named is non-small cell lung carcinoma cell strain HCC827. The conditions noted are these: 72 hours. The procedure:
(§1) The object of this assay was to test the inventive compounds for the inhibitory activity of in-vitro tumor cell proliferation. The MTT (tetreamethyl-azo-zole-salt) colorimetric method was used in this assay.
(§2) All of the above-mentioned non-small cell lung carcinoma cell strains and the breast carcinoma cell strain BT 474 were cultured with a RPMI-1640 complete culture medium containing 10% fetal bovine serum, 100 U/ml penicillin and 100 μg/ml streptomycin under 5% CO2 and at 37° C. The other cell strains were cultured with a DMEM complete culture medium containing 10% fetal bovine serum (having a MV4-11 cell content of 20%), 100 U/ml penicillin and 100 μg/ml streptomycin under 5% CO2 and 37° C.
(§3) A cell suspension having a cell concentration of 1-2×10^4 cells/ml was treated with a complete cell culture solution to adjust the cell concentration, wherein the cell concentrations for HCC827 and MV4-11 were adjusted to 6×10^4 cells/ml and 1×10^5 cells/ml respectively. The cell suspension was inoculated in a 96-well plate with 200 μl cell suspension/well and cultured overnight. Next day, the supernatant was drawn off and discarded. Then, the cells were treated with the tested compounds in a gradient concentration respectively. In the meanwhile, a negative control group free of the drug substance and an isovolumetric solvent control group (having a DMSO concentration of 1%) were used. The triplicate wells were used for each of dose groups. The culturing was conducted at 37° C. under 5% CO2. After 72 hours, […] having a concentration of 5 mg/ml was added to each of wells. The culturing was further conducted for 2-4 hours. The supernatant was discarded. Then […] was added to each of wells. The contents in the well were mixed homogenously by oscillation for 15 minutes. The absorbance (A) value was measured with a microplate reader at λ=570 nm (the A value is in the direct proportion to the number of living cells) and averaged. The relative cell proliferation inhibitory rate is (A570 control-group−A570 dose-group)/A570 control-group×100%. The assay was repeated for at least three times. The data was expressed as number average. The statistical data were analyzed using t-test. P<0.05 was considered significant. The cell proliferation inhibition of the following compounds was expressed as IC50 or inhibitory rate.

Assay [2] relates to non-small cell lung carcinoma cell strain PC-9 (EGFR delE746-A750 deletion mutation). The following applies: 72 hours. How it is done:
as §1, §2, §3

For assay [3], the system named is non-small cell lung carcinoma cell strain H292 (EGFR WT). The following applies: 72 hours. How it is done:
as §1, §2, §3

The subject of assay [4] is non-small cell lung carcinoma cell strain H1975 (EGFR L858R/T790M mutation). The following applies: 72 hours. How it is done: as §1, §2, §3
Assay [5] has as its system colon cancer cell strain HCT116. The conditions noted are these: 72 hours.
From the text: as §1
(§4) Human non-small cell lung carcinoma cell strains HCC827, PC-9, H1975 (EGFR L858R/T790M mutation) and H292 (EGFR WT), and other tumor type cell strains, including human acute myelogenous leukemia cell strain MV4-11, human chronic granulocytic leukemia cell strain K562, human squamous cell carcinoma cell strain A431, human breast carcinoma cell strains MDA-MB-468 and BT 474, human colon cancer cell strains SW480, HCT116 and SW620, human liver cancer cell strain Hep G2, human gastric cancer cell strain MK-45, and human malignant melanoma cell strain A375 used in this assay were all purchased from ATCC company, USA and kept in the laboratory. All of the above-mentioned non-small cell lung carcinoma cell strains and the breast carcinoma cell strain BT 474 were cultured with a RPMI-1640 complete culture medium containing 10% fetal bovine serum, 100 U/ml penicillin and 100 μg/ml streptomycin under 5% CO2 and at 37° C. The other cell strains were cultured with a DMEM complete culture medium containing 10% fetal bovine serum (having a MV4-11 cell content of 20%), 100 U/ml penicillin and 100 μg/ml streptomycin under 5% CO2 and 37° C.
as §3

The test system of assay [6] is squamous cell carcinoma cell strain A431. The following applies: 72 hours.
From the text: as §1, §4, §3

For assay [7], the system named is colon cancer cell strain SW620. The following applies: 72 hours.
From the text: as §1, §4, §3

In assay [8] the test system is malignant melanoma cell strain A375. The conditions noted are these: 72 hours.
From the text: as §1, §4, §3

Assay [9] concerns colon cancer cell strain SW480. The following applies: 72 hours.
From the text: as §1, §4, §3

The test system of assay [10] is chronic granulocytic leukemia cell strain K562. The conditions noted are these: 72 hours.
From the text: as §1, §4, §3

Assay [11] deals with acute myelogenous leukemia cell strain MV4-11. The following applies: 72 hours.
From the text: as §1, §4, §3

Assay [12] concerns breast carcinoma cell strain BT474. The following applies: 72 hours.
From the text: as §1, §4, §3

Assay [13] deals with breast carcinoma cell strain MDA-MB-468. The conditions noted are these: 72 hours.
From the text: as §1, §4, §3

Assay [14] deals with liver cancer cell strain Hep G2. The following applies: 72 hours, read-out: HEPG2 (IC50).
From the text: as §1, §4, §3

Assay [15] relates to gastric cancer cell strain MK-45. The following applies: 72 hours, read-out: MK45 (IC50).
From the text: as §1, §4, §3

For the compound `Cc1nc(Nc2ccc(N3CCN(C)CC3)cc2)nc2c1nc(Nc1ccccc1)n2C(C)C` [Compounds 8-34], the IC50 stood at 63.1 nM in assay [1]; 420 nM in [2]; 1230 nM in assay [3]; 6310 nM in assay [4]; 10500 nM in [5]; 2570 nM in [6]. Moreover, the IC50 was greater than 10000 nM in assay [7]; 6570 nM in assay [8]; 9950 nM in [9]; 1600 nM in assay [10]; 125 nM in assay [11]; 2630 nM in [12]. In addition, the IC50 in [13] is 3260 nM; in [14], 8460 nM; in [15] it was 1660 nM.
Take `CN1CCN(c2ccc(Nc3ncc4nc(Nc5ccc(F)c(Cl)c5)n(C5CCCC5)c4n3)cc2)CC1` [Compounds 8-35]: the 50% inhibitory concentration (IC50) in assay [1] worked out at 0.2 nM; in [2], 1.5 nM; in assay [3], 20.3 nM; in assay [4], 1520 nM; in assay [5], 676 nM; in [6] it was 635 nM. The IC50 in assay [7] turned out to be 2300 nM; in [8], 3250 nM; in assay [9], 5930 nM; in [10] it was 232 nM; in [11], 135 nM; in assay [12] it was 192 nM. Further, the IC50 in [13] stood at 1920 nM; in assay [14] it was 4340 nM; in [15], 1110 nM.
Turning to `CN1CCN(NC(=O)c2ccc(Nc3ncc4nc(Nc5cccnc5)n(C5CCCC5)c4n3)cc2)CC1` [Compounds 8-37], the IC50 in assay [1] was 130 nM; in [2], 348 nM; in assay [3] it was 5850 nM; in [4], greater than 10000 nM; in [5], greater than 10000 nM; in [6] it was greater than 10000 nM. Besides, the IC50 in assay [7] is greater than 10000 nM; in assay [8], greater than 10000 nM; in assay [9] it was greater than 10000 nM; in assay [10], 888 nM; in [11] it was 102 nM; in assay [12], 4520 nM. In addition, the IC50 in assay [13], in assay [14] and in [15] was greater than 10000 nM each time.
In the case of `CC(C)n1c(Nc2ccc(Cl)nc2)nc2cnc(Nc3ccc(N4CCN(C)CC4)cc3)nc21` [Compounds 8-41], the IC50 was determined as 16.5 nM in assay [1]; 209 nM in [2]; 268 nM in assay [3]; 501 nM in [4]; 5430 nM in [5]; 2740 nM in assay [6]. Besides, the IC50 in [7] was 2140 nM; in [8] it was greater than 10000 nM; in assay [9], 5400 nM; in assay [10], 146 nM; in assay [11] it was 1970 nM; in assay [12] it was 2090 nM. For the same compound, the IC50 in assay [13] stood at 4490 nM; in assay [14], 2200 nM; in assay [15], 3340 nM.
With `CC(C)n1c(Nc2ccc(OCc3cccc(F)c3)c(Cl)c2)nc2cnc(Nc3ccc(N4CCOCC4)cc3)nc21` [Compounds 8-42], the IC50 in assay [1] was 4260 nM; in [2], 3320 nM; in [3], 673 nM; in assay [4] it was greater than 10000 nM; in assay [5], greater than 10000 nM; in assay [6], 2240 nM. The IC50 in [7] was greater than 10000 nM; in assay [8], 498 nM; in assay [9], greater than 10000 nM; in assay [10], 922 nM; in assay [11], 6640 nM; in assay [12] it was 5100 nM. Also, the values for the IC50 in [13], in assay [14] and in assay [15] were 1700 nM, greater than 10000 nM and 5100 nM, respectively.
As for `CN1CCN(c2ccc(Nc3ncc4nc(Nc5ccc(Br)cc5)n(C5CCCC5)c4n3)cc2)CC1` [Compounds 8-43], the IC50 in assay [1] was 0.3 nM; in assay [2], 51.9 nM; in assay [3] it was 102 nM; in [4] it was 231 nM; in assay [5], 2570 nM; in assay [6], 484 nM. For the same compound, the concentration for half-maximal inhibition (IC50) turned out to be 5750 nM in assay [7]; 1910 nM in [8]; 5750 nM in assay [9]; 122 nM in assay [10]; 21.2 nM in [11]; 1830 nM in assay [12]. In addition, the IC50 in assay [13] was determined as 1030 nM; in assay [14], 5930 nM; in assay [15] it was 234 nM.
As to `CN1CCN(c2ccc(Nc3ncc4nc(Nc5cccc([N+](=O)[O-])c5)n(C5CCCC5)c4n3)cc2)CC1` [Compounds 8-44], the IC50 is 0.3 nM in assay [1]; 1.5 nM in assay [2]; 2.9 nM in assay [3]; 695 nM in assay [4]; greater than 10000 nM in [5]; 409 nM in [6]. The IC50 in assay [7] worked out at 2510 nM; in assay [8] it was 1740 nM; in assay [9], 6160 nM; in assay [10], 96.5 nM; in assay [11] it was 1140 nM; in assay [12], 682 nM. The IC50 in assay [13] is 2670 nM; in [14], greater than 10000 nM; in [15] it was 1350 nM.
As to `CN1CCN(c2ccc(Nc3ncc4nc(NCc5ccccc5)n(C5CCCC5)c4n3)cc2)CC1` [Compounds 8-45], the half-maximal inhibitory concentration (IC50) in [1] was found to be 0.2 nM; in assay [2], 9.7 nM; in assay [3], 13.9 nM; in assay [4], 1140 nM; in assay [5] it was 7080 nM; in assay [6], 1890 nM. The IC50 came out at 4970 nM in assay [7]; 9260 nM in assay [8]; 7750 nM in [9]; 218 nM in assay [10]; 59.4 nM in assay [11]; 870 nM in assay [12]. The IC50 in assay [13] was 2870 nM; in assay [14], greater than 10000 nM; in assay [15], 3740 nM.
`C#Cc1cccc(Nc2nc3cnc(Nc4ccc(N5CCN(C)CC5)cc4)nc3n2C2CCCC2)c1` [Compounds 8-46]: the IC50 was 0.3 nM in [1]; 3.5 nM in assay [2]; greater than 10000 nM in assay [3]; 770 nM in [4]; 9070 nM in assay [5]; 426 nM in assay [6]. In addition, the half-maximal inhibitory concentration (IC50) in [7] amounted to 3620 nM; in [8] it was 400 nM; in assay [9], 4010 nM; in assay [10], 250 nM; in assay [11] it was 4690 nM; in assay [12], 792 nM. The values for the IC50 in assay [13], in [14] and in assay [15] were 751 nM, greater than 10000 nM and 417 nM, respectively.
Turning to `CN1CCN(c2ccc(Nc3ncc4nc(Nc5ccc(Br)cc5F)n(C5CCCC5)c4n3)cc2)CC1` [Compounds 8-47], the IC50 in [1] was determined as 0.3 nM; in assay [2] it was 16.3 nM; in [3] it was 44.2 nM; in [4], 884 nM; in assay [5] it was 6090 nM; in assay [6] it was 299 nM. The IC50 is 4950 nM in assay [7]; 1570 nM in assay [8]; 5530 nM in [9]; 97.2 nM in [10]; 224 nM in assay [11]; 554 nM in assay [12]. The IC50 in assay [13] came out at 3190 nM; in assay [14] it was 8460 nM; in [15] it was 1180 nM.
